Assay [1] relates to recombinant human CFTR carrying the premature stop codon (PTC) mutation R1162X. In words: CFTR-PTC mutant translation readthrough, Nanoluc tagged CFTR luminescence (R1162X cell line). It counts as cell-based. Conditions: for CFTR R1162X ACTIVITY Fold 10 μM G-418: fold over 10 μM G-418, in combination with G418; for EC50: in combination with G418, 16HBE cells, read-out: CFTR R1162X ACTIVITY EC50. In outline: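 Readthrough is the 48 h compound-induced luminescence increase scaled to that of maximal G418 (125-250 μM). Compounds run from 50 μM final in 2-fold steps, ±10 μM G418, on 16HBE lines carrying Nanoluc-tagged CFTR G542X (extracellular loop 4 tag) or R1162X (C-terminal tag), with 3 μM VX-809 present.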

Assay [2] deals with recombinant human CFTR carrying the premature stop codon (PTC) mutation G542X. In words: CFTR-PTC mutant translation readthrough, Nanoluc tagged CFTR luminescence (G542X cell line). It counts as cell-based. The following applies: in combination with G418, G542X cell line; for CFTR G542X ACTIVITY Fold 10 μM G-418: fold over 10 μM G-418; for EC50: 16HBE cells. Here is the method: 16HBE human bronchial epithelial cells (stably over-expressing recombinant human CFTR carrying the premature stop codon (PTC) mutation G542X or R1162X along with a Nanoluc tag incorporated into the CFTR channel within extracellular loop 4 in G542X cell line or C-terminus end in the R1162X cell line were seeded at 0.01×10^6 cells/well and grown in Minimal Essential Medium (MEM) as monolayers in 384 well plates and incubated at 37° C. with 5% CO2. Media was changed every other day until day of experiment. Agents to be evaluated were made up in separate 384 well, polypropylene plates at a 2X the final desired test concentration. Test agent 10-point concentration response curves were constructed using the Labcyte Echo 555 acoustic dispenser. Test agents were typically tested at a max final test concentrations of 50 μM with sequential 2-fold lower concentrations below this in the absence or presence of a fixed 10 μM concentration of the aminoglycoside G418 made up in MEM growth media (reduced Serum Media+HEPES Buffer+2.4 g/L Sodium Bicarbonate+L-Glutamine containing CFTR corrector VX-809 (3 μM)). Treatment with 10 μM G418 alone produced approximately 10% of the response observed with a maximally effective concentration of G418 (typically 125-250 μM). Test agent effects in presence of 10 μM G418 were compared to control wells on the plate containing a maximally effective concentration of G418 (typically 125-250 μM) made up in the same media. 25 ul of test agents/control solutions were transferred from the compound plate to the cell plate, which already contained 25 ul/well of cell plating media, using an Integra Viaflo 384. Cell plates were incubated with the compounds for 48 hours, at which time they were processed using Nanoluc luminescence Kit (Promega Nano-Glo Live Cell Assay System) to measure CFTR-PTC mutant translation readthrough. Luminescence was measured as follows. Cell plates were removed from the incubator and allowed to equilibrate to room temperature for 20 minutes. Media was removed from all wells and the plates were blotted to remove excess remaining volume. Nano-Glo Live Cell Substrate was diluted 1:20 in the appropriate amount of Nano-Glo LCS Dilution Buffer to accommodate the number of cell plates being tested. The substrate/dilution buffer mix was then diluted 1:3 with MEM media to make the appropriate volume for the number of plates being tested. The substrate/dilution buffer/OptiMEM mix was added across the Nanoluc testing cell plates and the plates were read for luminescence signal immediately. Test agent effects on CFTR translation readthrough was determined by normalizing any observed increase in luminescence induced by 48 hours pretreatment with test compound to the magnitude of luminescence increase produced by pretreatment with a maximally effective concentration of the reference readthrough enhancing agent G418 (125-250 μM).

This is an account of results in US20250228865A1, “COMPOUNDS FOR ENHANCING READ THROUGH OF GENES CONTAINING PREMATURE TERMINATION CODONS AND METHODS FOR MAKING AND USING THE SAME” (Sanofi US Services Inc., priority 2022, published 2025).

Usually EC50 stands for the concentration needed to bring the measured effect to its halfway point. For `O=CNCC1CCCN(c2ncc(OCc3c(Cl)cccc3Cl)cn2)C1` (stereo not drawn), in assay [1], the “CFTR R1162X ACTIVITY Fold 10 μM G-418” value is listed as “B′ (B′ = ≥5X to <10X)” and the EC50 fell in the range of 1000 to 10000 nM. In addition, in assay [2], the “CFTR G542X ACTIVITY Fold 10 μM G-418” value is on record as “B′ (B′ = ≥5X to <10X)” and the EC50 is 1000 to 10000 nM.

Consider `Cc1cccc(C)c1COc1ccc(N2CC(CO)OC2=O)cc1` (stereo not drawn) [3-[4-[(2,6-dimethylphenyl)methoxy]phenyl]-5-(hydroxymethyl)oxazolidin-2-one], for which, in assay [1], the “CFTR R1162X ACTIVITY Fold 10 μM G-418” value is reported as “A′ (A′ = ≥10X)” and the EC50 was above 10000 nM. Moreover, in assay [2], the “CFTR G542X ACTIVITY Fold 10 μM G-418” value is “B′ (B′ = ≥5X to <10X)” and the EC50 was 1000 to 10000 nM.

`CCCCN1CC(=O)N(c2ncc(OCc3c(Cl)cccc3Cl)cn2)C1=O` [1-butyl-3-[5-[(2,6-dichlorophenyl)methoxy]pyrimidin-2-yl]imidazolidine-2,4-dione]: in assay [1], the “CFTR R1162X ACTIVITY Fold 10 μM G-418” value is recorded as “C′ (C′ = <5X)” and the EC50 is above 10000 nM. In addition, the EC50 in assay [2] is above 10000 nM.

For `OCCOCCN1CCN(c2ncc(OCc3c(Cl)cccc3Cl)cn2)CC1`, in assay [1], the “CFTR R1162X ACTIVITY Fold 10 μM G-418” value was “A′ (A′ = ≥10X)” and the EC50 is below 1000 nM. In addition, in assay [2], the “CFTR G542X ACTIVITY Fold 10 μM G-418” value is on record as “A′ (A′ = ≥10X)” and the EC50 was below 1000 nM.

As for `O=C1OC(CO)CN1c1ccc(OCc2c(Cl)cccc2Cl)cc1` (stereo not drawn) [3-[4-[(2,6-dichlorophenyl)methoxy]phenyl]-5-(hydroxymethyl)oxazolidin-2-one], in assay [1], the “CFTR R1162X ACTIVITY Fold 10 μM G-418” value was “B′ (B′ = ≥5X to <10X)” and the EC50 was 1000 to 10000 nM. Further, in assay [2], the “CFTR G542X ACTIVITY Fold 10 μM G-418” value is “B′ (B′ = ≥5X to <10X)” and the EC50 is 1000 to 10000 nM.

Regarding `Cc1cccc(C(F)(F)F)c1COc1cnc(N2CC(CO)OCC2=O)nc1` (stereo not drawn), in assay [1], the “CFTR R1162X ACTIVITY Fold 10 μM G-418” value is on record as “A′ (A′ = ≥10X)” and the EC50 was in the range of 1000 to 10000 nM. Moreover, in assay [2], the “CFTR G542X ACTIVITY Fold 10 μM G-418” value is recorded as “A′ (A′ = ≥10X)” and the EC50 lay within 1000 to 10000 nM.

In the case of `O=C1CN(c2ncc(OCc3c(Cl)cccc3C(F)(F)F)cn2)CC(CO)N1` (stereo not drawn), in assay [1], the “CFTR R1162X ACTIVITY Fold 10 μM G-418” value is “A′ (A′ = ≥10X)” and the EC50 lay in the range of 1000 to 10000 nM. In addition, in assay [2], the “CFTR G542X ACTIVITY Fold 10 μM G-418” value is recorded as “A′ (A′ = ≥10X)” and the EC50 lay in the range of 1000 to 10000 nM.

With `O=C1COC(CO)CN1c1ccc(OCc2c(Cl)cccc2C(F)(F)F)cn1` (stereo not drawn), in assay [1], the “CFTR R1162X ACTIVITY Fold 10 μM G-418” value is reported as “A′ (A′ = ≥10X)” and the EC50 was in the range of 1000 to 10000 nM. Also, in assay [2], the “CFTR G542X ACTIVITY Fold 10 μM G-418” value was “A′ (A′ = ≥10X)” and the EC50 was in the range of 1000 to 10000 nM.

`NCC1CN(c2ncc(OCc3c(Cl)cccc3Cl)cn2)CCO1` (stereo not drawn) [[4-[5-[(2,6-dichlorophenyl)methoxy]pyrimidin-2-yl]morpholin-2-yl]methanamine]: in assay [1], the “CFTR R1162X ACTIVITY Fold 10 μM G-418” value is “A′ (A′ = ≥10X)” and the EC50 was in the range of 1000 to 10000 nM. In addition, in assay [2], the “CFTR G542X ACTIVITY Fold 10 μM G-418” value is reported as “A′ (A′ = ≥10X)” and the concentration giving a half-maximal response (EC50) is below 1000 nM.

Consider `[2H]C([2H])(O)c1ncn(-c2ccc(OC([2H])([2H])c3c(Cl)cccc3C(F)(F)F)cc2)n1`, for which, in assay [1], the “CFTR R1162X ACTIVITY Fold 10 μM G-418” value is recorded as “C′ (C′ = <5X)” and the EC50 was below 1000 nM. Further, in assay [2], the “CFTR G542X ACTIVITY Fold 10 μM G-418” value is “C′ (C′ = <5X)” and the EC50 was below 1000 nM.

`OCc1cn(-c2ncc(OCc3c(Cl)cccc3C(F)(F)F)cn2)cn1`: in assay [1], the “CFTR R1162X ACTIVITY Fold 10 μM G-418” value is on record as “C′ (C′ = <5X)” and the concentration for a half-maximal effect (EC50) is below 1000 nM. In assay [2], the “CFTR G542X ACTIVITY Fold 10 μM G-418” value is listed as “C′ (C′ = <5X)” and the concentration for a half-maximal effect (EC50) was below 1000 nM.

On to `OCc1cn(-c2ccc(OCc3c(Cl)cccc3Cl)cn2)nn1` [[1-[5-[(2,6-dichlorophenyl)methoxy]-2-pyridyl]triazol-4-yl]methanol], for which, in assay [1], the “CFTR R1162X ACTIVITY Fold 10 μM G-418” value is reported as “A′ (A′ = ≥10X)” and the EC50 is below 1000 nM. Besides, in assay [2], the “CFTR G542X ACTIVITY Fold 10 μM G-418” value was “A′ (A′ = ≥10X)” and the concentration for a half-maximal effect (EC50) was below 1000 nM.

Turning to `OCc1cn(-c2ccc(CCc3c(Cl)cccc3Cl)cn2)cn1` [[1-[5-[2-(2,6-dichlorophenyl)ethyl]-2-pyridyl]imidazol-4-yl]methanol], in assay [1], the “CFTR R1162X ACTIVITY Fold 10 μM G-418” value is listed as “′” and the EC50 is above 10000 nM. In assay [2], the “CFTR G542X ACTIVITY Fold 10 μM G-418” value is on record as “B′ (B′ = ≥5X to <10X)” and the concentration giving a half-maximal response (EC50) was in the range of 1000 to 10000 nM.
